Entries after “also recorded” stand apart in the source; their conditions may differ.
Legend:
[1] = system: zebrafish embryos; experiment: Hemoglobin staining (o-dianisidine) of zebrafish embryos injected with csnk2b morpholino; type: in vivo, Zebrafish (Danio rerio); details: 2 dpf
Procedure: Zebrafish (Danio rerio) were raised in a circulating aquarium system on a 14-hour light/10-hour dark cycle at 28.5° C., following standard husbandry procedures.
The morpholino antisense oligo (MO) 5′-[…]-3′ (SEQ ID NO: 23) was synthesized to block the translation initiation of csnk2b, and the 5-mismatch oligo 5′-[…]-3′ (SEQ ID NO: 24) was synthesized as a specificity control (Gene Tools). For synthesizing CSNK2B rescue mRNA that is resistant to the translation blocking MO, the full-length csnk2b coding sequence with 4 base pairs of silent mutations in the MO recognition region was cloned into the pCS2-vector (Azenta Life Sciences), in which the first 24 base pairs of the CSNK2B coding sequence became 5′-[…]-3′ (SEQ ID NO: 25). The csnk2b capped mRNA was synthesized using the mMESSAGE mMACHINE Kit (Ambion, AM1340). Microinjection was performed on WT AB embryos at the 1- to 2-cell stages.
Embryos at 2 dpf were dechorionated and anesthetized with 0.016% tricaine (Fluka, A5040), followed by a 15-minute incubation in 0.6 mg/mL o-dianisidine solution (SigmaAldrich, D9143). This solution was prepared in 0.65% H2 O2 (EMD, HX0647-3), 40% ethanol (KOPTEC, 89125), and 10 mM sodium acetate (Fisher Chemical, S210-500) at room temperature. Stained embryos were washed twice with 1×PBS (Gibco, Thermo Fisher Scientific, 14200166) and then fixed in 4% paraformaldehyde (PFA) (SigmaAldrich, P6148). Hemoglobin signal was observed under a light microscope and quantified according to the area and intensity in the heart and common cardinal vein; embryos were categorized into normal, medium, and low hemoglobin levels.

[2] = system: LINC02228 (HIKER); experiment: KD efficiency of LINC02228 (HIKER) by ASO, qPCR; type: cell-based, human; details: CMS cells
Procedure: Locked nucleic acids (LNAs) targeting HIKER/LINC02228 and LINC00431 were designed and synthesized by Exiqon. The most efficient ASO for each LNA was initially tested in the pilot experiment with and without transfection reagent (Lipofectamine 3000. Life Technologies. L3000-008) in a dose-response experiment at a concentration of 10 nM, 25 nM, 50 nM, and 100 nM. The uptake and the effect of ASO were monitored by qPCR at various stages (iPSC stage and CD34+ cells isolated from EBs). For both lncRNAs, the optimal delivery for all the stages was at the 50 nM concentration without the transfection reagent.
(§1) CD34^+ cells were isolated from iPSC-derived EBs as follows. After 7 days of differentiation, EBs were harvested by spinning at 400 g for 10 minutes. After centrifugation, EBs were dissociated into single cells using Accutase treatment for 10 minutes and then filtered through a 60 μm cell strainer (Falcon). CD34^+ cells were isolated from this cell suspension using EasySep Human CD34 Positive Selection Kit 11 ([…] Technologies, 17856) per the manufacturer's instructions. These iPSC-derived CD34+ cells were used in subsequent qPCR and colony-forming assays.

[3] = system: Monge's disease; details: patients; cited from earlier work
[4] = system: CMS cells; experiment: BFU-E colony forming assay with CK2 inhibitors, iPSC-derived CD34+ cells under hypoxia; type: cell-based, human; details: 5% O2, 14 days, TBB 25 μM, 50 µM, 100 μM, CX4945 2.5, 5, 10 μM
Procedure: as §1
CD34^+ cells used in this assay were derived from iPSC-generated EBs as described herein. CD34^+ cells were plated at a density of 10^5 cells per 35 mm dish combined with MethoCult H4034 Optimum Media ([…] Technologies, 04044) and 2% FBS. Dishes were incubated at 37° C. in an incubator with 5% CO2 and 5% O2 for 14 days, at which time colonies were scored for BFU-E and CFU-granulocyte, erythrocyte, monocyte, megakaryocyte (CFU-GEMM).
TBB (catalog ab120988) and CX4945 (catalog S2248) were purchased from Abcam and Selleckcam, respectively. Dose-response experiments were performed with the inhibitors using the following concentrations in the colony forming assays using iPSC-derived CD34^+ cells as described herein: TBB (25 μM, 50 µM, and 100 μM) and CX4945 (2.5 μM, 5 μM, and 10 μM).

MO: morpholino antisense oligo 5′-CGACACTTCCTCTGAGCTACTCATG-3′ (SEQ ID NO: 23) blocking translation initiation of csnk2b (all phosphorodiamidate morpholino (PMO))
hemoglobin levels ([1]; 1 ng dose): minimal impact on hemoglobin levels | hemoglobin versus controls ([1]; 3 ng and 5 ng MO dosage): remarkable decrease in hemoglobin | morphants showing moderate or low iron staining ([1]; 3 ng and 5 ng MO): more than 97% | hemoglobin, dose dependence ([1]; 1, 3 or 5 ng): dose-dependent loss of hemoglobin

ASO-1: LNA gapmer ASO targeting HIKER/LINC02228, SEQ ID NO 1: G*G*T*T*G*C*T*T*T*C*A*G*G*C*C*C*C*T*T*A (antisense GGTTGCTTTCAGGCCCCTTA; all phosphorothioate, sugars by position and methylation of C not given here; LNA gapmer)
KD efficiency, ranking among the 3 ASOs [2]: highest KD efficiency

CC(=O)Nc1nnc(S(N)(=O)=O)s1 [Acetazolamide]
clinical response in Monge's disease [3]: mild response and relief of symptoms

Brc1c(Br)c(Br)c2n[nH]nc2c1Br [TBB]
BFU-E colonies (erythroid colony numbers) [4]: significant changes were observed in the colony numbers in a dose-dependent manner; also recorded: decreases BFU-E colonies in CMS cells in a dose-dependent manner
